Reference: US8951999B2, “Compounds” (Orexo AB, priority 2009, dated 2015)

Target: T1, recombinant human mPGES-1 (Homo sapiens, UniProt O14684)
T1 sequence (O14684 1-152): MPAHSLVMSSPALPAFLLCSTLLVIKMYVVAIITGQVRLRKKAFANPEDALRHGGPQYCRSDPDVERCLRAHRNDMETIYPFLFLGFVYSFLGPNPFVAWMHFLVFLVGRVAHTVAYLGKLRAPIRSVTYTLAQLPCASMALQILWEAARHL
Assay: Assay B: mPGES-1 enzyme assay (modified)
Type: biochemical
Conditions: biological assay B (all other compounds); PGH2 final conc. 2 μM, HTRF; read-out: mPGES-1 inhibitory effect IC50
Procedure: Assay B: mPGES-1 Enzyme Assay (Modified)
The aim of this assay is to determine the affinity of a test compound for the mPGES-1 enzyme.
47 μl of recombinant human mPGES-1 (˜0.5 μg protein/well) containing microsomal suspension in a buffer containing GSH, (2.5 mmol/L L-Glutathione reduced, dissolved in 0.1 mol/L Phosphat Buffer pH 7.4) is dispensed in a 384-well plate and thereafter 1 μl of the test compound(s) is/are added and incubated for 25 minutes at room temperature. The enzyme reaction is started by the addition of 2 ul PGH2 (final conc. 2 μM) dissolved in water-free Diglyme. After 60 seconds the reaction is terminated by addition of a stop solution containing FeCl2 (10 μL 0.074 mol/l FeCl2). The samples are diluted between 1:25 in PBS (Phosphate Buffered Saline). 10 μl of the diluted samples are transferred to 384-well low volume plate. In order to quantify the amount of PGE2 that has been formed, a homogenous time resolved fluorescent (HTRF) detecting of PGE2 has been performed using a commercially available kit from Cisbio according to the manufactures recommendation. This HTRF-based assay has been described in detail (see: Goedken et al., J Biomol Screen, 2008, 13(7), 619-625). Briefly, the diluted samples are mixed with […] PGE2-d2 conjugate and 5 μl anti-PGE2 cryptate conjugate. After an incubation period of the plates over night, the fluorescence is measured by the use of an appropriate microplate reader.
The fluorescence of Europium cryptate (maxex=307 nm, maxem=620 nm) and d2-PGE2 (maxex=620 nm, maxem=665 nm) are measured.
The extent of the specific HTRF is measured as a ratio of the emission intensity at 665 nm vs. that at 620 nm at an excitation pulse of 320 nm. The quantification plate contains also wells with different concentrations of PGE2 as calibration curve for the calculation of the PGE2 concentrations from the HTRF ratio values.
From all mPGES enzyme assay the background is subtracted and the IC50 is calculated over a nonlinear regression with conventional software.

| Compound | IC50 [nM] |
| --- | --- |
| CC(C)(C)C(=O)NCc1ccc(Cl)c(C(=O)Nc2ccc(OCC(F)F)c(C(=O)Nc3ccc(F)c(Cl)c3)c2)c1F [Example 46, N-[4-(2,2-Difluoroethyl)oxy-3-(4-fluoro-3-chloro-phenyl)aminocarbonyl-phenyl]-6-chloro-2-fluoro-3-(tert-butylcarbonylamino)methyl-benzamide] | 5 |
| CC(C)(C(=O)NCc1ccc(Cl)c(C(=O)Nc2ccc(OCC(F)F)c(C(=O)NCc3ccc(F)cc3C(F)(F)F)c2)c1)C(F)(F)F [Example 89] | 4 |
| CC(C)(C(=O)NCc1ccc(Cl)c(C(=O)Nc2ccc(OCC(F)F)c(C(=O)Nc3ccncn3)c2)c1)C(F)(F)F [Example 118] | 98 |
| COc1cc(Cl)ccc1NC(=O)c1cc(NC(=O)c2cc(CNC(=O)C(C)(C)C(F)(F)F)ccc2Cl)ccc1OCC(F)F [Example 91] | 6 |
| CC(C)(C(=O)NCc1ccc(Cl)c(C(=O)Nc2ccc(OCC(F)F)c(C(=O)NC3CCSCC3)c2)c1)C(F)(F)F [Example 90] | 9 |
| O=C(Nc1ccc(Br)cc1)c1cc(NC(=O)c2c(F)ccc(CNC(=O)C(F)(F)F)c2Cl)ccc1OCC(F)F [Example 43, N-[4-(2,2-Difluoroethyl)oxy-3-(4-bromophenyl)aminocarbonyl-phenyl]-6-fluor-2-chlor-3-(trifluormethylcarbonylamino)methyl-benzamide] | 120 |
| Cc1ccc(CNC(=O)C(C)(C)C)c(Cl)c1C(=O)Nc1ccc(OCC(F)F)c(C(=O)Nc2ccc(Br)cc2)c1 [Example 52, N-[4-(2,2-Difluoroethyl)oxy-3-(4-bromophenyl)aminocarbonyl-phenyl]-2-chloro-6-methyl-3-(tert-butylcarbonylamino)methyl-benzamide] | 4 |
| COCC1(CNC(=O)c2cc(NC(=O)c3cc(CNC(=O)C(C)(C)C(F)(F)F)ccc3Cl)ccc2OCC(F)F)CCCC1 [Example 88] | 9 |
| CC(C)(C(=O)NCc1ccc(Cl)c(C(=O)Nc2ccc(OC3CCOC3)c(C(=O)Nc3ccc(Br)cc3)c2)c1)C(F)(F)F (centres unmarked) [Example 69] | 4 |
| COCCOc1ccc(NC(=O)c2cc(CNC(=O)C(C)(C)C)ccc2Cl)cc1C(=O)Nc1ccc(Br)cc1 [Example 70] | 5 |
| CC(C)(C(=O)NCc1ccc(Cl)c(C(=O)Nc2ccc(OCC(F)F)c(C(=O)Nc3nc4ccc(Cl)cc4s3)c2)c1)C(F)(F)F [Example 93] | 7 |
| CC(C)(C(=O)NCc1ccc(Cl)c(C(=O)Nc2ccc(OCC(F)F)c(C(=O)NCc3ccc(C(F)(F)F)cc3)c2)c1)C(F)(F)F [Example 104] | 10 |
| CC(C)(C)C(=O)NCc1ccc(Cl)c(C(=O)Nc2ccc(N3CCC(F)CC3)c(C(=O)Nc3ccc(Br)cc3)c2)c1Cl [Example 61] | 5 |
| CC(C)(C)C(=O)NCc1ccc(Cl)c(C(=O)Nc2ccc(OCC(F)F)c(C(=O)Nc3ccc(Br)cc3)c2)c1F [Example 45, N-[4-(2,2-Difluoroethyl)oxy-3-(4-bromophenyl)aminocarbonyl-phenyl]-6-chlor-2-fluor-3-(tert-butylcarbonylamino)methyl-benzamide] | 4 |
| CC(C)(C(=O)NCc1ccc(Cl)c(C(=O)Nc2ccc(OCC(F)F)c(C(=O)NC3CCCC3)c2)c1)C(F)(F)F [Example 111] | 7 |
| CC(C)(C)C(=O)NCc1ccc(Cl)c(C(=O)Nc2ccc(N[C@H]3CC[C@H](C(F)(F)F)CC3)c(C(=O)N[C@H]3CC[C@H](C(F)(F)F)CC3)c2)c1 [Example 56, N-[4-(trans-4-trifluoromethylcyclohexyl)amino-3-[trans-(4-trifluoromethylcyclohexyl)amino]carbonyl-phenyl]-2-chloro-5-(tert-butylcarbonylamino)methyl-benzamide] | 128 |
| CC(C)(C(=O)NCc1ccc(Cl)c(C(=O)Nc2ccc(OCC(F)F)c(C(=O)NCC3(O)CC3)c2)c1)C(F)(F)F [Example 102] | > 100 |
| CC1CCC(NC(=O)c2cc(NC(=O)c3cc(CNC(=O)C(C)(C)C(F)(F)F)ccc3Cl)ccc2OCC(F)F)CC1 (centres unmarked) [Example 96] | 5 |
| CC(C)(C(=O)NCc1ccc(Cl)c(C(=O)Nc2ccc(OC3CCOC3)c(C(=O)N[C@H]3CC[C@H](C(F)(F)F)CC3)c2)c1)C(F)(F)F (some centres unmarked) [Example 67] | 5 |

Other lines, results leading:

| IC50 [nM] | Compound |
| --- | --- |
| 5 | CC(C)(C(=O)NCc1ccc(Cl)c(C(=O)Nc2ccc(OCC(F)F)c(C(=O)Nc3ccc(Cl)c(Cl)c3)c2)c1)C(F)(F)F [Example 125] |
| 4 | CC(C)(C(=O)NCc1ccc(Cl)c(C(=O)Nc2ccc(OCC(F)F)c(C(=O)Nc3ccc(Cl)c(C(F)(F)F)c3)c2)c1)C(F)(F)F [Example 126] |
| 7 | CC(C)(C(=O)NCc1ccc(Cl)c(C(=O)Nc2ccc(OCC(F)F)c(C(=O)Nc3ccc(F)c(Cl)c3F)c2)c1)C(F)(F)F [Example 134] |
| 11 | CC(C)(C(=O)NCc1ccc(Cl)c(C(=O)Nc2ccc(OCC(F)F)c(C(=O)NCC3CC3)c2)c1Cl)C(F)(F)F [Example 152] |
| 1 | CC(C)(C(=O)NCc1ccc(Cl)c(C(=O)Nc2ccc(OCC(F)F)c(C(=O)Nc3cc(F)cc(Cl)c3)c2)c1Cl)C(F)(F)F [Example 151] |
| 6 | CC1(C(=O)NCc2ccc(Cl)c(C(=O)Nc3ccc(OCC(F)F)c(C(=O)Nc4ccc(Br)cc4)c3)c2)CCCO1 (centres unmarked) [Example 163] |
| 7 | CC(C)(C(=O)NCc1ccc(Cl)c(C(=O)Nc2ccc(OCC(F)F)c(C(=O)Nc3cc(Cl)c4cc[nH]c4c3)c2)c1)C(F)(F)F [Example 144] |
| 150 | CC1(NC(=O)c2cc(NC(=O)c3c(Cl)ccc(CNC(=O)C(C)(C)C(F)(F)F)c3Cl)ccc2OCC(F)F)CCOCC1 [Example 155] |
| 10 | CC(C)(C(=O)NCc1ccc(Cl)c(C(=O)Nc2ccc(OCC(F)F)c(C(=O)Nc3ccc(F)c(Cl)c3)c2)c1Cl)C(F)(F)F [Example 145, N-[4-(2,2-difluoroethyl)oxy-3-(4-fluoro-3-chlorophenyl)aminocarbonyl-phenyl]-2,6-dichloro-3-[(2,2,2-trifluoro-1,1-dimethyl-ethyl)carbonylamino]methyl-benzamide] |
| 5 | CC(C)(C(=O)NCc1ccc(Cl)c(C(=O)Nc2ccc(OCC(F)F)c(C(=O)NC3CC4CCC3C4)c2)c1)C(F)(F)F (centres unmarked) [Example 124] |
| 6 | CC(C)(C(=O)NCc1ccc(Cl)c(C(=O)Nc2ccc(OCC(F)F)c(C(=O)Nc3ccccc3Cl)c2)c1)C(F)(F)F [Example 139] |
| 5 | CC(C)(C(=O)NCc1ccc(Cl)c(C(=O)Nc2ccc(OCC(F)F)c(C(=O)NCC3CCC3)c2)c1)C(F)(F)F [Example 141] |
| 8 | CC(O)(C(=O)NCc1ccc(Cl)c(C(=O)Nc2ccc(OCC(F)F)c(C(=O)Nc3ccc(Br)cc3)c2)c1)C(F)(F)F (centres unmarked) [Example 166] |
| 2 | CC(C)(C(=O)NCc1ccc(Cl)c(C(=O)Nc2ccc(OCC(F)F)c(C(=O)Nc3cccc(Cl)c3)c2)c1Cl)C(F)(F)F [Example 150] |
| 9 | CC(C)C(O)C(=O)NCc1ccc(Cl)c(C(=O)Nc2ccc(OCC(F)F)c(C(=O)Nc3ccc(Br)cc3)c2)c1 (centres unmarked) [Example 175] |
| 2 | CC(C)(C)C(=O)NCc1ccc(Cl)c(C(=O)Nc2ccc(N3CCCC(C(F)(F)F)C3)c(C(=O)Nc3ccc(Br)cc3)c2)c1Cl (centres unmarked) [Example 180] |
| 50 | CC(C(=O)NCc1ccc(Cl)c(C(=O)Nc2ccc(OCC(F)F)c(C(=O)Nc3ccc(Br)cc3)c2)c1)N1CCCC1 (centres unmarked) [Example 170] |
| 7 | CC(C)(C)C(=O)NCc1ccc(Cl)c(C(=O)Nc2cnc(OCC(F)F)c(C(=O)N[C@H]3CC[C@H](C(F)(F)F)CC3)c2)c1Cl [Example 178] |
| 50 | CNC(C)(C)C(=O)NCc1ccc(Cl)c(C(=O)Nc2ccc(OCC(F)F)c(C(=O)Nc3ccc(Br)cc3)c2)c1 [Example 176] |
| 9 | CC(C)(C(=O)NCc1ccc(Cl)c(C(=O)Nc2ccc(OCC(F)F)c(C(=O)NC3CC(F)(F)C3)c2)c1Cl)C(F)(F)F [Example 154] |
| 5 | CC(C)(C(=O)NCc1ccc(Cl)c(C(=O)Nc2ccc(OCC(F)F)c(C(=O)Nc3cccc(F)c3)c2)c1)C(F)(F)F [Example 119] |
| 1 | CC(NC(=O)c1cc(NC(=O)c2c(Cl)ccc(CNC(=O)C(C)(C)C(F)(F)F)c2Cl)ccc1OCC(F)F)C1CC1 (centres unmarked) [Example 148] |
| 14 | CC(C)(C(=O)NCc1ccc(Cl)c(C(=O)Nc2ccc(OCC(F)F)c(C(=O)NCCC(F)(F)F)c2)c1Cl)C(F)(F)F [Example 146] |
| 47 | Cn1cccc1C(=O)NCc1ccc(Cl)c(C(=O)Nc2ccc(OCC(F)F)c(C(=O)Nc3ccc(Br)cc3)c2)c1 [Example 167] |
| 7 | CC(NC(=O)c1cc(NC(=O)c2cc(CNC(=O)C(C)(C)C(F)(F)F)ccc2Cl)ccc1OCC(F)F)C1CC1 (centres unmarked) [Example 135] |
